Source: PubChem BioAssay AID651630 (Sanford-Burnham Center for Chemical Genomics, 2012)
Active and inactive are the calls of the source.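 How the source made its calls: active means lipid-stain IC50 at or below a set limit, with nuclear-stain toxicity IC50 at least five times higher; inactive means the rest.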

Assays:
DAPI = experiment: triacylglycerol accumulation inhibitor potency, dose response, cell-based, panel, Nile Red and DAPI fluorescence, H9c2 (AID 651630); conditions: H9c2 cells, DAPI nuclear fluorescence (cytotoxicity counter-readout), oleic acid;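 further: cells exposed to compound overnight before fixation and staining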
TAG = experiment: as above; conditions: H9c2 cells, Nile Red TAG fluorescence, oleic acid

| Structure (SMILES) | IC50 cytotoxicity (DAPI nuclear signal decrease) (DAPI; mean of runs) | IC50 cytotoxicity (DAPI nuclear signal decrease) (DAPI; run 1) [µM] | IC50 cytotoxicity (DAPI nuclear signal decrease) (DAPI; run 2) [µM] | IC50 (TAG; mean of runs) | IC50 (TAG; run 1) [µM] | IC50 (TAG; run 2) [µM] |
| --- | --- | --- | --- | --- | --- | --- |
| CCOC(=O)c1c(CN2CCNCC2)nc2ccc(Cl)cc2c1-c1ccccc1 | 16.8 µM (inactive) | 17.1 | 16.5 | > 25 µM (inactive) | > 25 | > 25 |
| COc1ccc(NS(=O)(=O)c2cccc(C(=O)N/N=C/c3cn(-c4ccccc4)nc3-c3ccccc3)c2)cc1 | > 25 µM (inactive) | > 25 | > 25 | 8.79 µM | 7.63 | 9.96 |
| CC(C)=CCC/C(C)=C/CNC(=O)C[C@H]1C[C@H](C(=O)N2CCCCC2)[C@@]2(CCc3ccccc3)c3[nH]c4cc(-c5ccco5)ccc4c3CCN2C1=O | > 25 µM (inactive) | > 25 | > 25 | 9.94 µM | 10.5 | 9.42 |
| CC(C)(Oc1ccc(Cl)cc1)C(=O)Nc1ccc2oc(-c3ccncc3)nc2c1 | > 25 µM (inactive) | > 25 | > 25 | > 25 µM (inactive) | > 25 | > 25 |
| COc1cc2nc(NCCCN3CCN(C)CC3)n3nc(-c4ccccc4)nc3c2cc1OC | > 25 µM (inactive) | > 25 | > 25 | > 25 µM (inactive) | > 25 | > 25 |
| COC(=O)c1ccc(Oc2cc(C)nc(SC)n2)cc1 | > 25 µM (inactive) | > 25 | > 25 |  | > 25 | 14.1 |
| CC(C)(C)NC(=O)C(c1ccc(-c2ccccc2)cc1)N(C[C@H]1CC[C@@H]([C@@H]2CC[C@H](CO)O2)O1)C(=O)c1ccc(-c2ccccc2)cc1 (some centres undefined) | > 25 µM (inactive) | > 25 | > 25 | 13.8 µM | 12.3 | 15.3 |
| CN(C)CC(O)c1ccc(C=Cc2ccc(Cl)cc2)cc1 (centres undefined) | > 25 µM (inactive) | > 25 | > 25 | 13.8 µM | 11.6 | 16.1 |
| CCCC(=O)Nc1nc2ccc(NC(=O)c3ccccc3F)cc2s1 | > 25 µM (inactive) | > 25 | > 25 | 13 µM | 12.4 | 13.6 |
| N#CCC(=O)N/N=C/c1cn(Cc2ccc(Cl)c(Cl)c2)c2ccccc12 | > 25 µM (inactive) | > 25 | > 25 |  | 19.9 | > 25 |
| CCN(C(=O)COC(=O)c1ccc([N+](=O)[O-])o1)c1cccc2ccccc12 | 20 µM (inactive) | 18.1 | 21.9 |  | 19.4 | > 25 |
| COc1ccc([C@H]2C[C@H](O)[C@@H](n3cc(-c4ccc(F)cc4)nn3)CN2Cc2cccs2)cc1 |  | 23.6 | > 25 | 18.3 µM (inactive) | 12.2 | 24.3 |
| CN(C)c1ncnc2c1ncn2C1OC(CO)C(O)C1O (centres undefined) | 12.8 µM (inactive) | 11 | 14.5 | > 25 µM (inactive) | > 25 | > 25 |
| CC(C)C[C@H]1CNC(=S)N1CC1CCCN1C[C@H](CC(C)C)N1C[C@H](CC(C)C)N(CC2CCCCCC2)C1=S (some centres undefined) | > 25 µM (inactive) | > 25 | > 25 | > 25 µM (inactive) | > 25 | > 25 |
| COc1ccc(CNC(=O)C[C@H]2C[C@H](C(=O)N3CCCCC3)[C@@]3(CCc4ccccc4)c4[nH]c5ccc(Cl)cc5c4CCN3C2=O)cc1OC | > 25 µM (inactive) | > 25 | > 25 | 10 µM | 9.61 | 10.4 |
| COc1cccc2sc(Nc3nc(-c4cc5ccccc5oc4=O)cs3)nc12 | > 25 µM (inactive) | > 25 | > 25 | 8.35 µM | 7.33 | 9.37 |
| COc1ccc(NC(=O)C2(C)Cc3c(-c4cccc(NC(C)=O)c4)ccnc3O2)cn1 (centres undefined) | > 25 µM (inactive) | > 25 | > 25 | > 25 µM (inactive) | > 25 | > 25 |

| Structure (SMILES) | IC50 cytotoxicity (DAPI nuclear signal decrease) (DAPI; mean of runs) | IC50 cytotoxicity (DAPI nuclear signal decrease) (DAPI; run 1) [µM] | IC50 cytotoxicity (DAPI nuclear signal decrease) (DAPI; run 2) [µM] | IC50 (TAG; mean of runs) | IC50 (TAG; run 1) [µM] | IC50 (TAG; run 2) [µM] |
| --- | --- | --- | --- | --- | --- | --- |
| CCOc1ccc(CCNC(=O)CCc2nc(-c3ccc(C)cc3)no2)cc1OCC | > 25 µM (inactive) | > 25 | > 25 | > 25 µM (inactive) | > 25 | > 25 |
| COc1ccc(-c2cc(C(=O)Nc3cc(OC)cc(C(=O)Nc4cccc(C(F)(F)F)c4)c3)[nH]n2)cc1 | > 25 µM (inactive) | > 25 | > 25 |  | > 25 | 4.64 |
| CCCCOc1ccccc1C1CC(=O)NC2=C1C(=O)CCC2 (centres undefined) | > 25 µM (inactive) | > 25 | > 25 | 15.9 µM (inactive) | 9.56 | 22.3 |
| COC(=O)c1cc(C(=O)N2CCN(c3cccc(Cl)c3)CC2)cc([N+](=O)[O-])c1 | > 25 µM (inactive) | > 25 | > 25 |  | 22.4 | > 25 |
| Cn1c(N)c(C(=O)COC(=O)c2ccc([N+](=O)[O-])o2)c(=O)n(C)c1=O | 19.1 µM (inactive) | 18.4 | 19.8 | 10.1 µM | 8.87 | 11.3 |
| COc1ccc(C(C(=O)NC(C)(C)C)N(Cc2ccco2)C(=O)CCC(=O)Nc2cc(C)on2)cc1 (centres undefined) | > 25 µM (inactive) | > 25 | > 25 | 19 µM (inactive) | 19.9 | 18.1 |
| COc1ccc(Nc2nc3cc(-c4sccc4C)sc3c(=O)n2C)cc1OC | > 25 µM (inactive) | > 25 | > 25 | 16.6 µM (inactive) | 16.8 | 16.5 |
| COC(=O)c1cc(NC(=O)c2c(Cl)nc3sccn23)cc(C(=O)OC)c1 | > 25 µM (inactive) | > 25 | > 25 | > 25 µM (inactive) | > 25 | > 25 |
| Cc1occc1C(=O)NC(C)CCc1ccccc1 (centres undefined) | > 25 µM (inactive) | > 25 | > 25 | > 25 µM (inactive) | > 25 | > 25 |
| CN(C)CCCN1c2ccccc2Sc2ccc3ccccc3c21 | > 25 µM (inactive) | > 25 | > 25 | > 25 µM (inactive) | > 25 | > 25 |
| COc1cc(-c2cnc3c(NC=O)cc(-c4cccc(NC(C)=O)c4)cn23)cc(OC)c1OC | > 25 µM (inactive) | > 25 | > 25 | 5.44 µM | 4.6 | 6.28 |
| CCOC(=O)c1cc(-c2ccncc2)nc2c1c(C)nn2-c1ccccn1 | > 25 µM (inactive) | > 25 | > 25 |  | 14.1 | > 25 |
| NC(=O)c1cccc(-c2ccnc3c2CC(C(=O)NCc2ccccc2)O3)c1 (centres undefined) | > 25 µM (inactive) | > 25 | > 25 | > 25 µM (inactive) | > 25 | > 25 |
| COC(=O)[C@@]1(Cc2ccccc2)[C@H]2C(=O)N(Cc3ccccc3)C(=O)[C@H]2[C@H]2CN=C(SCc3ccc(Cl)cc3)N21 | > 25 µM (inactive) | > 25 | > 25 | 9.75 µM | 10.4 | 9.1 |
| CN(C)CCNC=C(C(=O)Nc1ccc(Cl)cc1Cl)C(=O)Nc1ccc(Cl)cc1Cl |  | 20.8 | > 25 | 8.69 µM | 8.01 | 9.36 |
| O=C(CSc1nc(Nc2ccccc2)nc(N2CCOCC2)n1)N1CCCC1 |  | 22.1 | > 25 | 12.2 µM | 11.7 | 12.7 |
